In patent US20250243190A1, “NEW DEUTERATED RORGAMMA/RORGAMMAT INVERSE AGONISTS” (IMMUNIC AG, priority 2022, published 2025):

Columns and labels:
[1] = Microsomal stability, human liver microsomes
Description: (§1) The conversion to the metabolite was monitored by HPLC-MS/MS. Verapamil served as positive control.
(§2) The metabolism was monitored by HPLC-MS/MS. Verapamil served as positive control. The intrinsic clearance was calculated from the measured remaining compound values.
as §2

[2] = target: T1, RORγt (Homo sapiens, UniProt P51449); assay: Indigo Biosciences Human RAR-related Orphan Receptor, Gamma Reporter Assay (in vitro inhibition of RORγt); format: cell-based; conditions: RORγt reporter cells, luciferase readout, 22-24 h incubation; read-out: IC50 range
T1 sequence (P51449 269-508 limits assumed): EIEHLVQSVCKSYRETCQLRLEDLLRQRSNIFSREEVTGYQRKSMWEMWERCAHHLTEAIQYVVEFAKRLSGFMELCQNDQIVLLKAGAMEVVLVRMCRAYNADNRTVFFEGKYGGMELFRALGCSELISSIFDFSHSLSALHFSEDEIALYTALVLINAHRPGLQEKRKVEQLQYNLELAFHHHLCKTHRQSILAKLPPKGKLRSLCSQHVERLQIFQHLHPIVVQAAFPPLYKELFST
Description: The in vitro inhibition of RORγt was measured using Indigo Biosciences Human RAR-related Orphan Receptor, Gamma Reporter Assay System (Product #IB304001-32) as described in the technical manual. In brief, 200 μL of Reporter Cells is dispensed into wells of the assay plate and preincubated for 4-6 h. Following the pre-incubation period, culture media are discarded and 200 µL/well of the prepared 1×-concentration treatment media are added. Following 22-24 h incubation, treatment media are discarded and Luciferase Detection Reagent is added. The intensity of light emission (in units of ‘Relative Light Units’; RLU) from each assay well is quantified using a plate-reading luminometer. Average values of RLU were determined for each treatment concentration. Non-linear regression analyses were performed and IC50 values determined using GraphPad Prism software. Provided inverse-agonists ursolic acid served as positive control.

[3] = Microsomal stability, rat liver microsomes; conditions: 60 min
Description: as §1, §2

[4] = Microsomal stability, mouse liver microsomes; conditions: mouse, 60 min
Description: as §1
The metabolism was monitored by HPLC-MS/MS.
Verapamil served as positive control. The intrinsic clearance was calculated from the measured remaining compound values.

[5] = Rat pharmacokinetics, oral or intravenous cassette dosing; format: in vivo, rats (strain Wistar RjHAN); conditions: for AUC(0-inf) / AUC(0-t) / C0 / CL/F / Cmax / bioavailability: Wistar RjHAN, rat, plasma; for bioavailability: po 5 mg/kg vs iv 1 mg/kg
Description: The pharmacokinetics of the deuterated compounds of the present invention was evaluated in 3 male and 3 female rats (strain Wistar RjHAN, 7-8 week old) after oral or intravenous cassette dosing to asses the oral bioavailability. Rats are provided with a catheter in the jugular vein (2-3 days prior to blood sampling). At each designated time point (1, 2, 4, 8 and 24 h after dosing), 100 μL blood were collected into Li-heparin tubes, stored on ice until centrifugation (10 minutes at 3000 g, 4° C.) and plasma was prepared within 45 min after collection, frozen at −20° C. and stored at this temperature until processed for LC-MS analysis.

[6] = Mouse pharmacokinetics, oral or intravenous cassette dosing; format: in vivo, mice (C57BL/6J); conditions: C57BL/6J, whole blood; for bioavailability: 5 mg/kg oral vs 1 mg/kg intravenous, read-out: F (bioavailability)
Description: The pharmacokinetics of the compounds of the present invention was evaluated in 3 male and 3 female mice (C57BL/6J, 8 week old) after oral or intravenous cassette dosing to assess the oral bioavailability. Dose was 5 mg/kg (oral) and 1 mg/kg (intravenous), application volume was 5 mL/kg (oral) and 0.5 mL/kg (intravenous), vehicle was 5% solutol, 95% NaCl solution (at 0.9% saline concentration) for oral and 5% solutol, 5% Ethanol, 90% NaCl solution (at 0.9% saline concentration) for intravenous. At each designated time point (0.25, 0.5, 1, 2, 4, 8 and 24 h after dosing), 20 μL whole blood were collected from the tail vein into Li-heparin tubes, frozen on dry ice within 1-2 minutes of sampling and stored at −20° C. until processed for LC-MS analysis. The obtained data is as follows:
(§3) The pharmacokinetics of additional compounds of the present invention was evaluated in 3 female mice (C57BL/6J, 8 week old) after oral cassette dosing. Dose was 5 mg/kg, application volume was 5 mL/kg, vehicle was 5% solutol, 95% NaCl solution (at 0.9% saline concentration). At each designated time point (0.5, 1, 2, 4, 8 and 24 h after dosing), 20 μL whole blood were collected from the tail vein into Li-heparin tubes, frozen on dry ice within 1-2 minutes of sampling and stored at −20° C. until processed for LC-MS analysis. The obtained data is as follows:
as §3, with “(0.25, 0.5,” for “(0.5,”, “4 and” for “4,”, “8” for “8 and 24”, “analysis.” for “analysis. The obtained data is as follows:”

[7] = system: SARS-CoV-2; assay: Antiviral activity on SARS-CoV-2, viral replication (YFP) assay; format: cell-based; conditions: Severe acute respiratory syndrome coronavirus 2, read-out: EC50 range
Excerpt: (§4) The assay for viral replication (YFP) and the cell viability assay has been described in general in Pathogens 2021; 10:1076 and applied to compounds of the present invention furnished the following results: […]

[8] = Cell viability assay accompanying the SARS-CoV-2 assay; format: cell-based; conditions: cell viability assay of the SARS-CoV-2 test
Excerpt: as §4

[9] = 3 female mice, 5 mg/kg oral cassette, sampling 0.25-8 h
[10] = 3 female mice, 5 mg/kg oral cassette, sampling 0.25-8 h, read-out: AUC0-8 h

[2H]C(C)(O)Cn1ncc(-c2onc(-c3c(F)cccc3Cl)c2-c2ncccn2)c1C(F)(F)F (stereo not shown) [Comparative Example C1/1, reference compound]
microsomal CLint ([1]; both): 10.5 µL/min/mg

CC(O)Cn1ncc(-c2onc(-c3c(F)cccc3Cl)c2-c2ncccn2)c1C(F)(F)F (stereo not shown) [Comparative Example C1/2, reference compound]
microsomal CLint ([1]; both): 15.7 µL/min/mg

[2H]C(C)(O)C([2H])([2H])n1ncc(-c2onc(-c3c(F)cccc3Cl)c2-c2ncccn2)c1C(F)(F)F (stereo not shown) [Example 1/1, 1-(4-(3-(2-Chloro-6-fluorophenyl)-4-(pyrimidin-2-yl)isoxazol-5-yl)-5-(trifluoromethyl)-1H-pyrazol-1-yl)propan-1,1,2-d3-2-ol]
IC50 [2]: 10 to 100 nM | microsomal CLint ([1]; both): 7.8 µL/min/mg

[2H]C([2H])(CC(C)(C)O)n1ncc(-c2onc(-c3c(F)cccc3Cl)c2-c2ncccn2)c1C(F)(F)F [Example 3, 4-(4-(3-(2-Chloro-6-fluorophenyl)-4-(pyrimidin-2-yl)isoxazol-5-yl)-5-(trifluoromethyl)-1H-pyrazol-1-yl)-2-methylbutan-4,4-d2-2-ol]
IC50 [2]: 10 to 100 nM | microsomal CLint ([3]; rat liver microsomes batch 1910100 (Xenotech)): 31.4 µL/min/mg | microsomal CLint ([3]; rat liver microsomes batch 4085002 (Corning)): 29.7 µL/min/mg | microsomal CLint ([3]; rat liver microsomes batch 9078001 (Corning)): 30.2 µL/min/mg | microsomal CLint ([4]; female, mouse liver microsomes batch 4338001 female (Corning)): 43.9 µL/min/mg | microsomal CLint ([4]; female, mouse liver microsomes batch MDO female (Bioreclamation IVT)): 50.3 µL/min/mg | microsomal CLint ([4]; male, mouse liver microsomes batch 0010003 male (Corning)): 24 µL/min/mg | microsomal CLint ([1]; both): 2.2 µL/min/mg | microsomal CLint ([1]; male): 1.1 µL/min/mg | AUC(0-inf) ([5]; female rats, iv 1 mg/kg): 3780 ng·h/mL | AUC(0-t) ([5]; female rats, iv 1 mg/kg): 3660 ng·h/mL | C0 ([5]; female rats, iv 1 mg/kg): 2090 ng/mL | AUC(0-inf) ([5]; female rats, po 5 mg/kg): 2950 ng·h/mL | AUC(0-t) ([5]; female rats, po 5 mg/kg): 2930 ng·h/mL | CL/F ([5]; female rats, po 5 mg/kg): 132 mL/min/kg | Cmax ([5]; female rats, po 5 mg/kg): 629 ng/mL | bioavailability ([5]; female rats): 16% | AUC(0-inf) ([5]; male rats, iv 1 mg/kg): 3970 ng·h/mL | AUC(0-t) ([5]; male rats, iv 1 mg/kg): 3720 ng·h/mL | C0 ([5]; male rats, iv 1 mg/kg): 2460 ng/mL | AUC(0-inf) ([5]; male rats, po 5 mg/kg): 692 ng·h/mL | AUC(0-t) ([5]; male rats, po 5 mg/kg): 649 ng·h/mL | CL/F ([5]; male rats, po 5 mg/kg): 343 mL/min/kg | Cmax ([5]; male rats, po 5 mg/kg): 215 ng/mL | bioavailability ([5]; male rats): 3.5% | t1/2z ([5]; female rats, iv 1 mg/kg): 6.6 h | t1/2z ([5]; female rats, po 5 mg/kg): 3.2 h | t1/2z ([5]; male rats, iv 1 mg/kg): 7.2 h | t1/2z ([5]; male rats, po 5 mg/kg): 1.9 h | bioavailability ([6]; female mice): 34% | half-life ([6]; female mice, 5 mg/kg oral, cassette): 1.5 h | AUC(0-t) ([6]; female mice, 5 mg/kg oral, cassette, read-out: AUC0-24 h): 771 ng·h/mL | Cmax ([6]; female mice, 5 mg/kg oral, cassette, sampling to 24 h): 301 ng/mL | bioavailability ([6]; male mice): 93% | half-life ([6]; male mice, 5 mg/kg oral, cassette): 2.3 h | AUC(0-t) ([6]; male mice, 5 mg/kg oral, cassette, read-out: AUC0-24 h): 1040 ng·h/mL | Cmax ([6]; male mice, 5 mg/kg oral, cassette, sampling to 24 h): 392 ng/mL | EC50 [7]: < 100 nM | CC50 [8]: 22000 nM

[2H]C([2H])(CC(C)(C)O)n1ncc(-c2onc(-c3c(F)cccc3Cl)c2C(=O)OC)c1C(F)(F)F [Example 7, Methyl 3-(2-chloro-6-fluorophenyl)-5-(1-(3-hydroxy-3-methylbutyl-1,1-d2)-5-(tri-fluoromethyl)-1H-pyrazol-4-yl)isoxazole-4-carboxylate]
IC50 [2]: 10 to 100 nM | EC50 [7]: < 100 nM | CC50 [8]: 20000 nM

[2H]C([2H])([2H])OC(=O)c1c(-c2c(F)cccc2Cl)noc1-c1cnn(C([2H])([2H])CC(C)(C)O)c1C(F)(F)F [Example 7/2, Methyl-d3 3-(2-chloro-6-fluorophenyl)-5-(1-(3-hydroxy-3-methylbutyl-1,1-d2)-5-(tri-fluoromethyl)-1H-pyrazol-4-yl)isoxazole-4-carboxylate]
IC50 [2]: 10 to 100 nM | EC50 [7]: < 100 nM | CC50 [8]: 63000 nM

[2H]C([2H])(OC1CC1)c1c(-c2c(F)cccc2Cl)noc1-c1cnn(C([2H])([2H])CC(C)(C)O)c1C(F)(F)F [Example 9, 4-(4-(3-(2-Chloro-6-fluorophenyl)-4-(cyclopropoxymethyl-d2)isoxazol-5-yl)-5-(trifluoro-methyl)-1H-pyrazol-1-yl)-2-methylbutan-4,4-d2-2-ol]
IC50 [2]: 10 to 100 nM | EC50 [7]: 100 to 1000 nM | CC50 [8]: 18000 nM

[2H]C([2H])([2H])c1c(-c2onc(-c3c(F)cccc3Cl)c2-c2ncccn2)cnn1C([2H])([2H])CC(C)(C)O [Example 10/1]
IC50 [2]: 100 to 1000 nM | EC50 [7]: 100 to 1000 nM | CC50 [8]: > 100000 nM

[2H]C([2H])(OC(C)C)c1c(-c2c(F)cccc2Cl)noc1-c1cnn(-c2cccc(Cl)c2)c1C(F)(F)F [Example 102/1]
IC50 [2]: < 10 nM | Cmax [6, 9]: 922 ng/mL | half-life [6, 9]: 2.6 h | AUC(0-t) [6, 10]: 2350 ng·h/mL | EC50 [7]: < 100 nM | CC50 [8]: > 100000 nM

[2H]C([2H])(OC([2H])(C([2H])([2H])[2H])C([2H])([2H])[2H])c1c(-c2c(F)cccc2Cl)noc1-c1cnn(-c2cccc(Cl)c2)c1C(F)(F)F [Example 102/2]
IC50 [2]: < 10 nM | Cmax [6, 9]: 112 ng/mL | half-life [6, 9]: 2.8 h | AUC(0-t) [6, 10]: 280 ng·h/mL | EC50 [7]: < 100 nM | CC50 [8]: > 100000 nM

[2H]C([2H])([2H])OC([2H])([2H])c1c(-c2c(F)cccc2Cl)noc1-c1cnn(-c2cccc(Cl)c2)c1C(F)(F)F [Example 110, 3-(2-Chloro-6-fluorophenyl)-5-(1-(3-chlorophenyl)-5-(trifluoromethyl)-1H-pyrazol-4-yl)-4-((methoxy-d3)methyl-d2)isoxazole]
IC50 [2]: < 10 nM | EC50 [7]: < 100 nM | CC50 [8]: > 100000 nM

[2H]C([2H])(OC([2H])([2H])C([2H])([2H])[2H])c1c(-c2c(F)cccc2Cl)noc1-c1cnn(-c2cccc(Cl)c2)c1C(F)(F)F [Example 110/1]
IC50 [2]: 10 to 100 nM | EC50 [7]: < 100 nM | CC50 [8]: > 100000 nM
